In US20220054494A1, “METHODS FOR TREATING BLADDER AND URETHRA DYSFUNCTION AND DISEASE” (University of Pittsburgh - Of the Commonwealth System of …, priority 2019, published 2022):
“Also recorded” adds a separate entry of the source.

Key:
[1] = tested on: bladder wall collagen fibers; experiment: Planar biaxial mechanical testing coupled with multiphoton microscopy of bladder wall; type: in vivo, rat; settings: aged rats
Procedure: Protocol 3: Planar biaxial mechanical testing coupled with multiphoton microscopy was performed on bladder wall specimens to assess bladder mechanical function while simultaneously observing changes in the collagen microstructure. Briefly, the unloaded intact bladder diameter (do) and meridional length (hv) were measured and used to calculate the unloaded bladder volume (V0) from the ellipsoid volume, V0=πd0^2h0/6. The intact bladders were then cut open longitudinally and trimmed into 6±1 mm×6±1 mm square specimens for mechanical testing with sides aligned in the in situ longitudinal and circumferential directions. Samples were then positioned in the custom-designed biaxial testing system and mechanically tested using fiducial markers on the sample to calculate stretch, defined as the ratio of distance between markers in sample when loaded and unloaded. A multiphoton microscope (OLYMPUS® FV1000 MPE) equipped with a Coherent Cheleon TiSapphire pulsed Laser was used to image the undulated (wavy) collagen fibers in the mounted samples without staining or fixation during loading (i.e., stretch) as per previously published methods. Stacks of 2D planar images were generated by imaging sequentially across the wall thickness. To avoid tissue damage while obtaining a large range of stretch, loading was stopped at the stretch where collagen fibers were visibly straightened (heretofore termed recruited). This was defined as the maximum stretch. Fiber tortuosity was measured by tracing collagen fibers across the 2D slices (Filament function in Imaris, Bitplane, Switzerland). Fiber arc length (s) and cord length (L) were determined for each fiber tracing and used to calculate the tortuosity. The tortuosity of an undulated or wavy fiber is, therefore, greater than one and approaches one as the fiber becomes fully straightened.
Bi-axial Stretch Combined with Multi-Photon (MPM) Imaging: Planar biaxial mechanical testing coupled with multiphoton microscopy was performed on bladder wall specimens to assess bladder mechanical function while simultaneously observing changes in the collagen microstructure. Briefly, the unloaded intact bladder diameter (do) and meridional length (hv) were measured and used to calculate the unloaded bladder volume (V0) from the ellipsoid volume, V0=πd0^2h0/6. The intact bladders were then cut open longitudinally and trimmed into 6±1 mm×6±1 mm square specimens for mechanical testing with sides aligned in the situ longitudinal and circumferential directions. […] Fiber tortuosity was measured by tracing collagen fibers across the 2D slices (Filament function in Imaris, Bitplane, Switzerland). Fiber arc length (s) and cord length (L) were determined for each fiber tracing and used to calculate the tortuosity. […]

[2] = tested on: IL-1beta; experiment: RT-qPCR of bladder IL-1beta mRNA in CYP cystitis model; type: in vivo, rat; settings: CYP (75 mg/kg i.p.) female Sprague Dawley rats; oral 8-AG 5 mg/kg/day starting one week prior to CYP
Procedure: Animals: Female Sprague Dawley rats were employed in this example (Charles River; Wilmington, Mass.). Three groups of animals were included. Group 1 received an i.p. injection of saline and was used as a control; groups 2 and 3 received an i.p. injection of cyclophosphamide (CYP, SIGMA-ALDRICH®, St Louis, Mo., day 0, 3, 6, sacrifice day 8, 75 mg/kg, i.p.) with group 3 treated with oral 8-AG (5 mg/kg/day; starting one week prior to CYP). CYP induced bladder inflammation and is a well-established pre-clinical model for BPS/IC.
RT-qPCR: Total RNA was isolated from bladders using TRIZOL® Reagent (THERMO FISHER SCIENTIFIC®; Waltham, Mass.) according to the manufacturer's instructions. The cDNA was synthesized using ISCRIPT™ cDNA synthesis kit (BIO-RAD®). qPCR analysis was performed using Power SYBR™ Green PCR Master Mix (THERMO FISHER SCIENTIFIC®) in the APPLIED BIOSYSTEMS® QUANTSTUDIO™ 3 Real-Time PCR System (THERMO FISHER SCIENTIFIC®). The primers used were as follows: for IL-1beta, 5′-[…]-3′ (forward; SEQ ID NO: 1) and 5′-[…]-3′ (reverse; SEQ ID NO: 2); for MCP-1, 5′-[…]-3′ (forward; SEQ ID NO: 3) and 5′-[…]-3′ (reverse; SEQ ID NO: 4); for β-actin, 5′-ACTCTTCCAGCCTTCCTTC-3′ (forward; SEQ ID NO: 5) and 5′-[…]-3′ (reverse; SEQ ID NO: 6). The threshold cycle (Ct) for target was subtracted from Ct for β-actin to give ΔCt. Results are expressed as 2AC.

SMILES: Nc1nc2[nH]c(N)nc2c(=O)[nH]1 [8-AG, 8-Aminoguanine]
- bladder compliance (stress-stretch curve) ([1]; oral 8-AG 5 mg/kg/day, 6 weeks): more extensible (or compliant) bladder; also recorded: more extensible, compliant bladder
- collagen fiber tortuosity in the detrusor layer ([1]; oral 8-AG 5 mg/kg/day, 6 weeks): increased; also recorded: restored fiber tortuosity to that of younger rats
- collagen fiber tortuosity in the lamina propria ([1]; oral 8-AG 5 mg/kg/day, 6 weeks): increased; also recorded: Normalizing; also recorded: restored fiber tortuosity to that of younger rats
- critical stretch at which the steep increase in bladder stiffness occurs ([1]; oral 8-AG for 1 week and 4 weeks): recovered to levels found in young rats
- IL-1beta mRNA expression in bladder [2]: suppressed; also recorded: near the detection limit; also recorded: nearly abolished
